Patent US12286425B2, “Herbicidally active bicyclic benzamides” (Bayer Aktiengesellschaft, priority 2018, dated 2025)

Legend:
Format in all cases: in vivo
[1] = test system: monocotyledonous and dicotyledonous weed plants and crop plants; assay: Pre-emergence herbicidal action and crop plant compatibility (PE), other species and comparison with A-117; settings: pre-emergence (PE), application rate 320, scored visually after about 3 weeks; for Herbicidal activity ABUTH: Abutilon theophrasti; for Herbicidal activity AMARE: Amaranthus retroflexus; for Herbicidal activity CYPES: Cyperus esculentus; for Herbicidal activity ECHCG: Echinochloa crus-galli; for Herbicidal activity MATIN: Matricaria inodora; for Herbicidal activity POLCO: Polygonum convolvulus; for Herbicidal activity STEME: Stellaria media; for Herbicidal activity VIOTR: Viola tricolor
Excerpt: (§1) 1. Pre-emergence herbicidal action and crop plant compatibility (pre-emergence, PE) Seeds of monocotyledonous and dicotyledonous weed plants and crop plants are placed in plastic or organic planting pots and covered with soil. The compounds of the invention, formulated in the form of wettable powders (WP) or as emulsion concentrates (EC), are then applied onto the surface of the covering soil as aqueous suspension or emulsion with addition of 0.5% additive at a water application rate of […] (converted). After the treatment, the pots are placed in a greenhouse and kept under good growth conditions for the trial plants. After about 3 weeks, the effect of the preparations is scored visually in comparison with untreated controls as percentages. The tables below show the herbicidal activity of numerous compounds according to the invention against important harmful plants. For example, 100% activity=the plants have died, 0% activity=like control plants.
(§2) In a comparative experiment, by way of example, the herbicidal activity of compound No. 2-13 according to the invention was compared to that of compound No. A-117 known from WO 2013/076315 A2.

[2] = test system: AVEFA; assay: Pre-emergence herbicidal action (PE), greenhouse pot test, AVEFA; settings: pre-emergence (PE); application rate 320; scored visually after about 3 weeks vs untreated controls; 100% = plants have died, 0% = like control plants
Excerpt: as §1

[3] = test system: SETVI; assay: Pre-emergence herbicidal action (PE), greenhouse pot test, SETVI; settings: pre-emergence (PE), Setaria viridis, application rate 320, scored visually after about 3 weeks
Excerpt: as §1

[4] = test system: monocotyledonous and dicotyledonous weeds and crop plants; assay: Post-emergence herbicidal action and crop plant compatibility (PO), including comparison with A-117; settings: post-emergence (PO), application rate 80, rated visually after about 3 weeks; for Herbicidal activity ABUTH: Abutilon theophrasti; for Herbicidal activity AMARE: Amaranthus retroflexus; for Herbicidal activity CYPES: Cyperus esculentus; for Herbicidal activity ECHCG: Echinochloa crus-galli; for Herbicidal activity PHBPU: Ipomoea purpurea; for Herbicidal activity SETVI: Setaria viridis; for Herbicidal activity STEME: Stellaria media; for Herbicidal activity VIOTR: Viola tricolor
Procedure: 2. Post-emergence herbicidal action and crop plant compatibility (post-emergence, PO) Seeds of monocotyledonous and dicotyledonous weeds and crop plants are placed in sandy loam in plastic or organic planting pots, covered with soil and cultivated in a greenhouse under controlled growth conditions. 2 to 3 weeks after sowing, the test plants are treated at the one-leaf stage. The compounds of the invention, formulated in the form of wettable powders (WP) or as emulsion concentrates (EC), are then sprayed onto the green parts of the plants as aqueous suspension or emulsion with addition of 0.5% additive at a water application rate of […] (converted). After the test plants had been kept in the greenhouse under optimum growth conditions for about 3 weeks, the activity of the preparations is rated visually in comparison to untreated controls. The tables below show the herbicidal activity of numerous compounds according to the invention against important harmful plants. For example, 100% activity=the plants have died, 0% activity=like control plants.
as §2

SMILES | Herbicidal activity ABUTH [1] | Herbicidal activity AMARE [1] | Herbicidal activity CYPES [1] | Herbicidal activity ECHCG [1] | Herbicidal activity MATIN [1] | Herbicidal activity POLCO [1] | Herbicidal activity STEME [1] | Herbicidal activity VIOTR [1] | herbicidal activity AVEFA [2] | Herbicidal activity SETVI [3] | Herbicidal activity ABUTH [4] | Herbicidal activity AMARE [4] | Herbicidal activity CYPES [4] | Herbicidal activity ECHCG [4] | Herbicidal activity PHBPU [4] | Herbicidal activity SETVI [4] | Herbicidal activity STEME [4] | Herbicidal activity VIOTR [4] | further results
CCn1nnnc1NC(=O)c1ccc(C(F)(F)F)c2c1OCC[S+]2[O-] (stereo not drawn) [Example 3-16] | 100% | 100% | 100% | 100% | 100% | 100% | 100% | 100% | 100% | 100% | 100% | 100% | 90% | 90% | 100% | 90% | 100% | 100% | herbicidal activity AVEFA ([4]; Avena fatua): 100%; Herbicidal activity POLCO ([4]; Polygonum convolvulus): 90%; Herbicidal activity VERPE ([4]; Veronica persica): 100%
CCn1nnnc1NC(=O)c1ccc(C(F)(F)F)c2c1OCCS2(=O)=O [Example 3-19] | 100% | 100% | 100% | 100% | 100% | 90% | 90% | 100% | 90% | 100% | 90% | 90% | 80% | 100% | 90% | 90% | 100% | 100% | 
